Values joined by “and” are separate entries in the source; they are usually repeats but may differ in a detail not shown here. Equal entries are not always repeated. “Also recorded” adds a separate entry of the source.
Key:
[1] = tested on: P. cynomolgi developing EEFs (liver schizonts) in primary rhesus hepatocytes; design: method as in PMID 24366744; details: P. cynomolgi in vitro liver-stage assay; read-out: IC50 against developing EEFs; cited from earlier work
[2] = tested on: P. cynomolgi hypnozoites in primary rhesus hepatocytes; design: method as in PMID 24366744; details: P. cynomolgi in vitro liver-stage assay; read-out: IC50 against hypnozoites; cited from earlier work
[3] = tested on: P. cynomolgi sporozoite-infected rhesus macaques (hypnozoites, relapse); test: Radical cure in P. cynomolgi sporozoite-infected rhesus macaques; format: in vivo, Plasmodium cynomolgi; details: group PQ-RC
Description: Sporozoites were harvested from P. cynomolgi-infected mosquitoes, washed with phosphate-buffered saline (PBS), and diluted to 100,000 sporozoites (spz)/ml in PBS. One-milliliter aliquots of sporozoites were prepared and injected into monkeys via intravenous (i.v.) injection.
(§1) Monkeys were treated according to the schedule shown in Table 1 (stratification of treatment groups is given in the supplemental material). During treatment, monkeys were weighed daily and received the compound via gavage, followed by gastric feeding (weight change during treatment is shown in Table S6 in the supplemental material). Monkeys in the prophylaxis groups (groups 691-proph and 599-proph) were treated ∼20 min after the i.v. sporozoite injection. The other monkeys were treated when all the monkeys in the experiment (except those in the prophylaxis group) were blood-stage patent (at day 11 p.i.). To kill the blood-stage parasites, all monkeys received a 5-day treatment of 7.5 mg/kg of body weight of chloroquine (CQ) (intramuscular [i.m.] injection), during compound dosing. KDU691 was formulated in 0.5% methylcellulose and 0.5% Tween 80 in water. LMV599 was formulated as a solid dispersion in a solution containing 5.6% (wt/wt) Tween 80–44.4% hydroxypropyl methylcellulose (HPMC) E3–38.9% Soluplus–11.1% vitamin E D-alphatocopheryl polyethylene glycol 1000 succinate (TPGS).
Parasitemia was closely monitored by thin-film analysis. Animals were trained to present for thigh pricks, which was followed by a reward. Thin-film slides were stained with 20% Giemsa stain, and at least 50 fields (±20,000 erythrocytes [RBCs]) were analyzed with a bright-field microscope (×1,200 magnification). As soon as all monkeys other than the prophylactic treatment groups were blood-stage positive, treatment was started as indicated above (Table 1). After the last day of compound dosing, the absence of blood-stage parasites was confirmed by thin smears. From day 23 p.i., monkeys were monitored daily for relapses. The KDU691 radical-cure (group 691-RC) treatment and control groups were monitored until the first relapse. The LMV599 control (group 599-C), radical-cure (group 599-RC), and PQ radical-cure (group PQ-RC) treatment groups were monitored until the second relapse or until day 100 p.i. (whichever came first). At the end of the study, monkeys that had relapsed received a 14-day primaquine treatment, with a final check 2 weeks after the last primaquine dose.
P. cynomolgi sporozoite production
A monkey was infected with […] P. cynomolgi M strain blood stage parasites, thawed from a first passage stock (i.e. blood stage parasites from a monkey infected with P. cynomolgi M strain sporozoites). For each batch of sporozoites needed, a single monkey was infected with P. cynomolgi blood stage parasites.
At day 11 and 12 post infection 9 mL infected blood was collected into a Lithium-heparinised tube. The blood was kept at 38°C and fed approximately 500 three to five days old female Anopheles stephensi mosquitoes Sind-Kasur strain Nijmegen (Nijmegen University Medical Centre St Radboud, Department of Medical Microbiology) using a glass feeder system as described by Ponnudurai et al.. After the second bleed, the monkey was cured by three daily intramuscular injections of 7.5 mg/kg chloroquine, monitored for parasite clearance 24 days after chloroquine treatment and returned to colony.
Mosquitoes were kept in climate chambers at 25 °C and 80% humidity and were fed 5% D -glucose on cotton pads daily. Seven days after feeding on the infected rhesus blood, oocyst numbers were determined in midguts of ten individuals, using 1% mercurochrome stain. Mosquitoes were given a second (uninfected) blood meal immediately afterwards to promote sporozoite maturation and invasion of the salivary glands. Sporozoites were isolated from the P. cynomolgi infected mosquitoes around day16 after the infected blood meal.
In vivo monkey infection and treatment procedures […]

[4] = Clinical chemistry, hematology, weight and clinical observation of treated monkeys; format: in vivo, rhesus macaques (Macaca mulatta)
Description: as §1
Blood samples were collected for clinical evaluation and pharmacokinetic (PK) analysis (see Table S2 in the supplemental material).
When the first relapse was observed, monkeys of the KDU691 experiment were radically cured with primaquine (PQ)/CQ (oral administration of 1.8 mg/kg PQ for 14 days together with i.m. administration of 7.5 mg/kg CQ for the first five days of PQ treatment) to cure both blood stage and liver stage parasites, […]
The monkeys of the LMV599/PQ experiment were cured with a five day CQ treatment (7.5 mg/kg, i.m. administration) at the first relapse and were monitored until the second relapse after which they were cured with CQ (7.5 mg/kg, intramuscular (i.m.) for five days) plus PQ (1.8 mg/kg for 14 days).
Table S2: PK and clinical blood sampling schedule in monkeys.
Groups are named 691 for KDU691 and 599 for LMV599 treatment groups, followed by -C for control group (no compound), -proph for prophylactic treatment (treated immediately after infection), and -RC for radical cure treatment (treated when blood stage positive). […]
the face and chest areas were very yellow. Therefore the 691-RC group (treated from d11 to d15 pi) was monitored by daily clinical chemistry analysis during dosing to be compared with untreated 691-C. […]
sampling of the single dose prophylaxis group at day 0, 1, 7 and 100. The lack of aberrant clinical […]
as radical cure compound, during which also clinical sampling was performed daily. a: only clinical chemistry samples were taken. *: t = 24 sample was taken only on the 1st day of dosing.
Group name Clin. chem PK sampling PK time points
Hematology (h post dosing)
691-proph 1st and 5th day of dosing t = 0, 1, 4, 6 and 24*
691-RC Dailya 1st and 5th day of dosing t = 0, 1, 4, 6 and 24* […]
599-RC Daily 1st and 4th day of dosing t = 0, 1, 2, 4 and 24
Clinical chemistry and hematology
For the clinical analysis serum from 1 mL of clotted blood was analysed using the Cobas Integra 400 plus fully automated chemistry analyser. The following clinical parameters were determined: Alkaline phosphatase; Alanine Aminotransferase; Albumin: Aspartate aminotransfeasr; Bilirubin; Calcium; Cholesterol; Creatine kinase; Creatinine; C-reactive protein: Iron; Phosphate; Gamma-glutamyl transpeptidase; Glucose; Hemoglobin; Potassium; Lactate dehydrogenase; Sodium; Total protein; Urea Haematological parameters were determined from 1 mL EDTA-blood with a Sysmex XT-2000iV automated system. The following hematological parameters were determined: Basophilic granulocytes; Eosinophilic granulocytes; Erythrocytes; Hematocrit; Leucocytes; Leucocyte differentiation; Lymphocytes; Mean corpusculair hemoglobin; Mean corpusculair hemoglobin concentration; Mean corpusculair volume; Neutrophilic granulocytes; Red cell distribution width; Thrombocytes […]
Liver tissue samples were excised, dipped in PBS, gently blotted with absorbent paper, dried, weighed and stored at -20 °C until further analysis. […]

[5] = group PQ-RC, 1.8 mg/kg, % of weight at d0

COc1cc(NC(C)CCCN)c2ncccc2c1 (stereo not drawn) [PQ, primaquine]
IC50 [1]: 0.37 µM | IC50 [2]: 0.84 µM | Day p.i. to first relapse ([3]; 1.8 mg/kg oral for 5 days from day 11 p.i. plus CQ, individual monkeys, ND = not detected up to day 100 p.i., 1.8 mg/kg): 47 day p.i. and 68 day p.i. | animals radically cured ([3]; 1.8 mg/kg oral for 5 days, monitored up to 100 days p.i., 1.8 mg/kg): two out of four; also recorded: two were completely cured | Day p.i. to second relapse ([3]; 1.8 mg/kg oral for 5 days, individual monkeys, ND = not detected up to day 100 p.i.): 100 day p.i. | day p.i. to first relapse, mean ± SD of the relapsing animals ([3]; 1.8 mg/kg oral for 5 days, only two of the four animals relapsed, delay P = 0.000237): 57.5 ± 14.8 day p.i. | Day p.i. to primary parasitemia ([3]; individual monkeys, baseline, before dosing started): 9 day p.i. and 10 day p.i. and 11 day p.i. | Weight change d1 [4, 5]: -0.8% | Weight change d2 [4, 5]: -1.2% | Weight change d3 [4, 5]: -2.6% | Weight change d4 [4, 5]: -2.9% | mean weight loss ([4]; primaquine treatment, 1.8 mg/kg for 5 days, control 2.7%): 2.9%
